{"source": "patent US11612586B2", "about": "“Indole regulation of antigen presenting cells” (THE TEXAS A&M UNIVERSITY SYSTEM, priority 2016, dated 2023)", "key": {"Salmonella Typhimurium": {"system": "Salmonella Typhimurium", "assay": "Salmonella invasion of and intracellular survival in J774.A1 macrophages", "type": "cell-based"}, "aldh1a2": {"system": "aldh1a2", "assay": "aldh1a2 gene expression in BMDCs, real-time qPCR", "type": "cell-based, murine", "conditions": "day 7 BMDCs cultured with indole from day 3", "method": "(§1) FIG. 13A: BMDCs were cultured from day 3 with indole (1 mM), retinoic acid (1 uM), or DMF control were assayed for aldehyde dehydrogenase (ALDH) activity using the Aldefluor commercial kit. The ALDH inhibitor, DEAB reagent, was included to control for background fluorescence. Aldefluor fluorescence as a measure of ALDH activity was analyzed by flow cytometry. Data is reported as percentage of Aldefluor positive DCs (left panel) and corresponding MFI values (right panel). Individual dots represent data from five independent experiments. FIG. 13B: Gene expression of aldh1a2 was assayed by real-time qPCR in day 7 BMDCs cultured with indole from day 3. Gene expression was normalized to 18 s ribosomal RNA. Mean of three independent experiments. *p<0.05 by Student's t test.\nTotal RNA was extracted from BMDCs using RNeasy Mini Kit (Qiagen) and then retro-transcribed using cDNA Superscript Mastermix (Quanta). Quantitative PCR reactions were carried out in triplicate using Perfecta SYBR Green Fast Mix, Low ROX (Quanta).\nGene expression levels for each individual sample were normalized to 18 s. Mean relative gene expression was determined and differences were calculated using the 2^−ΔC(t) method."}, "TGF-β": {"system": "TGF-β", "assay": "TGF-β production by BMDC cultures (ELISA)", "type": "cell-based, mouse", "conditions": "indole-conditioned DCs", "method": "To determine whether this was a specific downregulation of pro-inflammatory cytokines, production of the canonical DC-produced anti-inflammatory cytokines, IL-10 and TGF-β, was also examined.\nCytokine concentration in the supernatant of BMDC cultures was assessed using commercially available ELISA kits for IL-10 (Peprotech) and TGF-β (eBioscience) per the manufacturer's instructions."}, "DSS colitis": {"system": "DSS colitis", "assay": "BMDC transfer in murine DSS colitis model", "type": "in vivo, mouse", "conditions": "mice transferred i.p. with BMDCs conditioned with indole, 5% DSS day 7-14, endpoint day 20", "method": "FIGS. 21A and 21B graphically illustrate that the in vivo transfer of indole-conditioned DCs prevented shortening of colon in a murine DSS colitis model. BMDCs were cultured with indole, RA, or DMF from day 3. Two million BMDCs were transferred via i.p. injection to WT C57BL/6 mice on days 0, 6, and 9 of the experiment. Mice received 5% dextran sulfate sodium (DSS) ad libitum in their drinking water from day 7 through day 14. Mice were euthanized on day 20 and colons were immediately removed and measured for length (FIG. 21A) and weight (FIG. 21B). n=4 mice/group. *p<0.05 by one-way ANOVA followed by Dunnett's post-test, comparing to unmanipulated control colons.\nA hallmark pathological sign of colitis is shortening of the colon, mediated by abscesses forming in the intestinal crypts that disrupt the mucosal architecture and are later replaced by scar tissue. […] Shortening of the colon is an established indicator of colitis pathology in the murine model of DSS colitis.\nBMDCs were cultured with indole, RA, or DMF from day 3 as described above. BMDCs were washed, counted, and resuspended in sterile PBS (Ca—Mg—) for transfer to WT C57BL/6 recipients. Two million BMDCs were transferred via i.p. injection on days 0, 6, and 9 of the experiment. Mice received 5% dextran sulfate sodium (DSS, MW=36,000-50,000; MP Biomedicals) ad libitum in their drinking water from day 7 through day 14. […]"}, "[1]": {"system": "aldehyde dehydrogenase (ALDH)", "assay": "Aldehyde dehydrogenase activity in BMDCs (Aldefluor)", "type": "cell-based, mouse", "conditions": "indole 1 mM from day 3, Aldefluor", "method": "as §1, with “Mean of three independent experiments. *p<0.05 by Student's t test.” left out\nOne possible explanation for these observations is that indole promotes retinoic acid availability to the DCs, thus inducing gut homing markers indirectly by providing substrate for a previously identified mechanism. To investigate this possibility, aldehyde dehydrogenase (ALDH) activity was analyzed via flow cytometry using the fluorescent ALDH substrate, Aldefluor. […]\nActivity of aldehyde dehydrogenase (ALDH) in individual BMDCs was measured using an Aldefluor staining kit (Stem Cell Technologies) according to the manufacturer's instructions with minor modifications. […] Subsequently, cells were stained with CD11c in cold Aldefluor assay buffer and then analyzed by flow cytometry."}, "DCs": {"system": "DCs", "assay": "Antigen-uptake assay in DCs", "conditions": "FITC-labeled OVA particles"}, "Erk": {"system": "Erk", "assay": "pERK signaling in BMDCs", "type": "cell-based, mouse", "conditions": "1 mM TDMM 24 hours, CpG (5 uM) 15 minutes", "method": "The inventors performed a series of assays where bone marrow derived macrophages (BMDMs), bone marrow derived dendritic cells (BMDCs), and splenic dendritic cells (splenic DCs), were exposed to a series of TDMMs, including indole, indole-3-acetate (I3AT), 5-hydroxyindole (5HI), and indole-3-pyruvate (I3P), as well as indole-3-carbinol (I3C; a plant derived compound) to be used for a positive control (1 mM for 24 hours). The BMDMs and BMDCs were stimulated with LPS for 4 hours and assayed at day 7 for expression of various pro-inflammatory cytokines. In a similar assay, the BMDMs and BMDCs were stimulated with LPS or CpG, respectively, for 15 minutes and assayed for pAKT and pERK signaling, which is a reflection of pro-inflammatory response."}, "TLR4": {"system": "TLR4", "assay": "Surface TLR4 expression on DC2.4 and BMDC", "conditions": "DC2.4 and BMDC 18 hours indole, BMDC indole from day 3"}, "IL-6": {"system": "IL-6", "assay": "IL-6 production in BMDCs, intracellular staining, flow cytometry", "type": "cell-based, mouse", "conditions": "indole 24 hours (overnight), LPS 1 ug/ml 4 hours", "description": "Briefly, bone marrow was harvested from femurs of mice and cultured for 7 days in the presence of DC-skewing cytokines, GM-CSF and IL-4. […] The pro-inflammatory cytokines, IL-6 and IL-12, were specifically queried. […] Immune cells communicate largely through the production of soluble factors including cytokines, and DCs detect these signals and determine their effector functions accordingly."}}}
{"smiles": "c1ccc2[nH]ccc2c1", "note": "[Indole, indole]", "values": [{"measurement": "intracellular survival of Salmonella in J774.A1 macrophages", "setting": "Salmonella Typhimurium", "result": "not significantly affected"}, {"measurement": "decrease of Salmonella invasion of J774.A1 macrophages", "setting": "Salmonella Typhimurium; Salmonella exposed to indole", "result": 2, "unit": "fold"}, {"measurement": "aldh1a2 expression", "setting": "aldh1a2", "result": "inhibits"}, {"measurement": "TGF-β production", "setting": "TGF-β", "result": "Neither IL-10 nor TGF-β production were affected"}, {"measurement": "average colon length", "setting": "DSS colitis", "result": "~6", "unit": "cm"}, {"measurement": "ALDH activity in DCs", "setting": "[1]", "result": "does not affect ALDH activity"}, {"measurement": "particle uptake by DCs", "setting": "DCs", "result": "did not alter particle uptake"}, {"measurement": "pERK", "setting": "Erk", "result": "↓↓"}, {"measurement": "surface TLR4 expression on DCs", "setting": "TLR4", "result": "does not alter surface TLR4 expression"}, {"measurement": "inhibition of IL-6 production", "setting": "IL-6", "result": "≥ 2", "unit": "fold"}]}
